Data reported in patent US20120122848A1, “(+)-3-HYDROXYMORPHINAN DERIVATIVES AS NEUROPROTECTANTS” (GREEN CROSS CORPORATION, priority 2009, published 2012).
Counter-ions that a name gives are not always drawn.

Legend:
[1] = Total antioxidant activity assay (TEAC; metmyoglobin, 2,2′-azinobis(3-ethylbenzoline 6-sulfonate), H2O2)
Procedure: Briefly, 1 ml of reaction mixture including 2.5 μM metmyoglobin, 150 μM 2,2′-azinobis(3-ethylbenzoline 6-sulfonate), 75 μM H2O2, and 0.84% sample or Trolox (for standard) in PBS was incubated for 7.5 min at 30° C.; then the absorbance at 734 nm was measured. The data are normalized to 1 mM Trolox (TEAC activity) [Kumiko I. et al., The Activation of Dopamine D4 Receptors Inhibits Oxidative Stress-Induced Nerve Cell Death., J. Neurosci., 2001]. The EC50 values were analyzed statistically using Prizm® (GraphPad Software Inc., San Diego, Calif., USA).

SirT1 [2] = experiment: RT-PCR analysis of target gene expression under glutamate toxicity in HT22 cells; format: cell-based, mouse; details: 10 mM glutamate, 18 hrs
Procedure: HT22 cells (1.5×10^7) plated in a 100 mm dish were treated with 10 mM glutamate in the absence or presence of 3-HM.HBr or the compound of Example 26 and incubated for 18 hrs. Oligonucleotide primers used for the PCR amplification were DJ-1 (PARK7), LRRK2 (Leucine-rich repeat kinase 2), PINK1 (PTEN induced putative kinase 1), SirT1 (silent mating type information regulation 2 homolog 1 (S. cerevisiae)), SirT2 (silent mating type information regulation 2 homolog 2 (S. cerevisiae)), and others. PCR products were electrophoresed on 2% agarose gels and detected by ethidium bromide [Kumiko I. et al., The Activation of Dopamine D4 Receptors Inhibits Oxidative Stress-Induced Nerve Cell Death., J. Neurosci., 2001].
FIG. 2A and FIG. 2B show the results of reverse transcription polymerase chain reaction.
In FIG. 2A, Lane 1 is mock, Lane 2 is the group treated with 10 mM Glutamate, and Lane 3 is the group treated with 10 mM Glutamate and 100 uM 3-HM.HBr. […]

SirT1 [3] = experiment: Western blotting analysis of SirT1 in glutamate-treated HT22 cells; format: cell-based, mouse; details: 10 mM glutamate, 18 hrs
Procedure: HT22 cells (1.5×10^7) plated in a 100 mm dish were treated with 10 mM glutamate in the absence or presence of 3-HM.HBr or the compound of Example 26, and incubated for 18 hrs. The cells were collected by scraping in a sample buffer (3% SDS, 1% glycerol, 0.5% 2-mercaptoethanol, 0.05% bromophenol blue, and 80 mM Tris-HCl buffer, pH 6.8, with complete protease inhibitors). The resulting suspention was centrifuged and the pellets thus obtained were re-suspended in the sample buffer. The samples were heated for 3 min in boiling water, fractionated on 4-20% polyacrylamide gels, and electroblotted onto membranes. SirT1 affinity purified polyclonal antibody was used as the primary antibody. Immunoreactive bands were detected with the ECL (Amersham Pharmacia Biotech, Arlington Heights, Ill.) Western blotting detection reagents [Kumiko, I. et al., The Activation of Dopamine D4 Receptors Inhibits Oxidative Stress-Induced Nerve Cell Death., J. Neurosci., 2001, 21(16):6069-6076]. […]

[4] = Cell cytotoxicity test: protection of HT22 cells against glutamate toxicity (EC50) and cytotoxicity of the compounds (CC50), MTT; format: cell-based, mouse; details: mouse, HT22 cells (mouse hippocampal neuron)
How it was run: (§1)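 Cells plated 16 hrs, then exposed to 5 mM glutamate plus a compound concentration series for 24 hrs in DMEM with 10% FBS. Viability by MTT (4 hrs), absorbance at 450 nm; EC50 is protection against glutamate toxicity, CC50 is compound cytotoxicity.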

[5] = system: HT22 cells (mouse hippocampal neuron); experiment: as above; format: cell-based; details: Mus musculus, HT-22, five millimolar glutamate, 24 hrs, read-out: EC50 (neuroprotective effect against glutamate toxicity)
How it was run: as §1

HT22 cells = experiment: ROS measurement using DCFDA in glutamate-treated HT22 cells; format: cell-based; details: Mus musculus, HT-22, 5 mM glutamate, 8 hrs
Procedure: HT22 cells (1×10^4) plated in a 96-well plate were treated with 5 mM glutamate in the absence or presence of 3-HM.HBr or the compound of Example 26, and incubated for 8 hrs. After washing with PBS, cells were stained with 10 μM 2,7-dichlorodihydrofluorescein diacetate (DCFDA) in HBSS (Hank's balanced salt solution, Gibco) for 30 min in the dark. Then the cells were washed with PBS twice and extracted with 1% Triton X-100 in PBS for 10 min at 37° C. Fluorescence was recorded with the excitation wavelength of 490 nm and the emission wavelength of 525 nm (Infinite M200, TECAN) [Da-Qing, et. al., Anti-oxidant and anti-inflammatory activities of macelignan in murine hippocampal cell line and primary culture of rat microglia cells, BBRC, 2005, 331, 1264-1269]. The EC50 values were analyzed statistically using Prizm® (GraphPad Software Inc., San Diego, Calif., USA).

[6] = system: dopamine (DA) neurons in substantia nigra pars compacta; details: MPTP model, daily injections; cited from earlier work

For `Oc1ccc2c(c1)[C@]13CCCC[C@@H]1[C@H](C2)NCC3` [3-HM•HBr, (+)-3-hydroxymorphinan HBr, reference compound], the “inhibition (total antioxidant activity)” value ([1]; at 100 μM) was 22.4%, the “SirT1 expression levels (RT-PCR)” value (SirT1 [2]) was “decreased SirT1 expression levels were elevated” and the “SirT1 expression (Western blotting)” value (SirT1 [3]) was “this decreasing was protected”. The CC50 at 24 h [4] was > 100 µM, the EC50 [5] was 31.3 µM and the EC50 (HT22 cells) was 38.5 µM.
For `Oc1ccc(Nc2cc3c(cc2O)[C@]24CCCC[C@@H]2[C@H](C3)NCC4)cc1` [Example 26, (+)-3-Hydroxy-2-(4-hydroxyphenylamino)morphinan TFA salt], the EC50 ([1]; 7.5 min at 30° C., absorbance at 734 nm) was 32.4 µM, the “SirT1 expression levels (RT-PCR)” value (SirT1 [2]) was “decreased SirT1 expression levels were elevated” and the “SirT1 expression (Western blotting)” value (SirT1 [3]) was “this decreasing was protected”. It also gave a CC50 at 24 h [4] of 2.31 µM, an EC50 [5] of 0.00459 µM and an EC50 (HT22 cells) of 3.11 µM.
In the case of `Oc1ccc2c(c1)[C@]13CCCC[C@@H]1[C@H](C2)NCC3` [(+)-3-HM, (+)-3-Hydroxymorphinan], the “DA levels in striatum” value [6] is given as “DA levels in striatum has been restored” and the “protection of DA neurons in substantia nigra pars compacta” value [6] is given as “dopamine (DA) neurons in substantia nigra pars compacta have been protected”.
